For five compounds, IC50, Activity and inhibition results are on record in ChEMBL document CHEMBL3046183, “2,4,6-Trihydroxybenzaldehyde as a potent antidiabetic agent alleviates postprandial hyperglycemia in normal and diabetic rats” (Med Chem Res, 2011).

In general, IC50 refers to the point on the concentration scale where inhibition reaches its midpoint.

Calls of active or inactive are those of the source. No cut-off for these calls is given here.

The nature of assay [1]: Inhibition of alpha-glucosidase (unknown origin) using PNPG as substrate assessed as p-nitrophenol release from substrate after 30 min. Further details: species or system Homo sapiens.
Assay [2] deals with Rattus norvegicus. Briefly: Antidiabetic activity in Rattus norvegicus Sprague-Dawley (rat) streptozotocin-induced diabetic model assessed as reduction of blood glucose level at 50 mg/kg administered intragastrically after 30 min (reference value: 378.2 to 594.7 mg/dl). The class given is functional. To be noted: route intragastric.
For assay [3], the system named is Rattus norvegicus. Briefly: Antihyperglycemic activity in glucose treated Rattus norvegicus Sprague-Dawley (rat) assessed as reduction of postprandial blood glucose level at 50 mg/kg administered intragastrically immediately after glucose load after 30 min (reference value: 95.7 to 182.3 mg/dl). The class given is functional. To be noted: route intragastric.
For assay [4], the system named is Rattus norvegicus. Put plainly: Antidiabetic activity in maltose loaded Rattus norvegicus Sprague-Dawley (rat) streptozotocin-induced diabetic model assessed as reduction of blood glucose level at 50 mg/kg administered intragastrically immediately after maltose load after 2 hr. The class given is functional, organism-based. Further details: dose 50 mg/kg.
Assay [5] concerns Rattus norvegicus. Briefly: Antihyperglycemic activity in maltose treated Rattus norvegicus Sprague-Dawley (rat) assessed as reduction of postprandial blood glucose level at 50 mg/kg administered intragastrically immediately after maltose load after 2 hr. In kind it is functional, organism-based. The arrangement: dose 50 mg/kg.
Assay [6] relates to Rattus norvegicus. Briefly: Antidiabetic activity in maltose loaded Rattus norvegicus Sprague-Dawley (rat) streptozotocin-induced diabetic model assessed as reduction of blood glucose level at 20 mg/kg administered intragastrically immediately after maltose load after 2 hr. The class given is functional, organism-based. The arrangement: dose 20 mg/kg.
The subject of assay [7] is Rattus norvegicus. Put plainly: Antihyperglycemic activity in maltose treated Rattus norvegicus Sprague-Dawley (rat) assessed as reduction of postprandial blood glucose level at 20 mg/kg administered intragastrically immediately after maltose load after 2 hr. Further details: dose 20 mg/kg. In kind it is functional, organism-based.
The species entered for another assay is Homo sapiens. Put plainly: Noncompetitive inhibition of alpha-glucosidase (unknown origin) using PNPG as substrate by Lineweaver-Burk plot analysis.
The test system of assay [8] is Rattus norvegicus. Briefly: Antidiabetic activity in Rattus norvegicus Sprague-Dawley (rat) streptozotocin-induced diabetic model assessed as reduction of blood glucose level at 20 mg/kg administered intragastrically after 30 min (reference value: 378.2 to 594.7 mg/dl). In kind it is functional. To be noted: route intragastric.
For assay [9], the system named is Radical scavenging activity. Briefly: Antioxidant activity assessed as DPPH radical scavenging activity after 30 min. The class given is functional.
For assay [10], the system named is Rattus norvegicus. Put plainly: Antihyperglycemic activity in glucose treated Rattus norvegicus Sprague-Dawley (rat) assessed as reduction of postprandial blood glucose level at 20 mg/kg administered intragastrically immediately after glucose load after 30 min (reference value: 95.7 to 182.3 mg/dl). The class given is functional. To be noted: route intragastric.

In the case of `O=C(OC[C@H]1O[C@@H](OC(=O)c2cc(O)c(O)c(O)c2)[C@H](OC(=O)c2cc(O)c(O)c(O)c2)[C@@H](OC(=O)c2cc(O)c(O)c(O)c2)[C@@H]1OC(=O)c1cc(O)c(O)c(O)c1)c1cc(O)c(O)c(O)c1` [PENTAGALLOYL GLUCOSE], the IC50 in assay [1] worked out at 0.39 µM.
Take `COc1cc(OC)c(C=O)c(OC)c1` [2,4,6-TRIMETHOXYBENZALDEHYDE]: in [1], the IC50 was 2380 µM.
Regarding `C[C@H]1O[C@H](O[C@H]2[C@H](O)[C@@H](O)[C@@H](O[C@H]3[C@H](O)[C@@H](O)C(O)O[C@@H]3CO)O[C@@H]2CO)[C@H](O)[C@@H](O)[C@@H]1N[C@H]1C=C(CO)[C@@H](O)[C@H](O)[C@H]1O` (some centres undefined) [ACARBOSE], the Activity in the assay with Rattus norvegicus [2] stood at 372.1 mg/dL; with Rattus norvegicus [3], 97.5 mg/dL. The outcome in the assay with Rattus norvegicus [4] and in the assay with Rattus norvegicus [5] was Active.
As to `O=Cc1c(O)cc(O)cc1O` [PHLOROGLUCINALDEHYDE], the result with Rattus norvegicus [6] and in the assay on Rattus norvegicus [7] was inactive. For the same compound, in the assay listed under Homo sapiens, the inhibition result was “Active”. For the same compound, the Activity in the assay with Rattus norvegicus [8] was 367.9 mg/dL; in the assay with Rattus norvegicus [10], 96.5 mg/dL. Moreover, the IC50 stood at 71.4 µM in assay [9] and 4.6 µM in [1].
For the compound `O=C(O)c1cc(O)c(O)c(O)c1` [GALLIC ACID], the IC50 in [1] was determined as 112 µM.
